Laboratory results reported in patent US10329289B2, “6,7-dihydro-5H-pyrrolo[3,4-B]pyridin-5-one allosteric modulators of the M4 muscarinic acetylcholine receptor” (Merck Sharp & Dohme Corp., priority 2015, dated 2019).

target: T1, human M4 muscarinic acetylcholine receptor (Homo sapiens, UniProt P08173); test: human FLIPR-based M4 PAM assay (Ca2+ mobilization, CHO-K1 cells with human M4 receptor and Gαqi5); assay type: cell-based; conditions: acetylcholine at 20% of maximum response, read-out: M4 PAM IP
T1 construct: expressed in transfected cells; host or cells: CHO-K1
T1 sequence (P08173 1-479): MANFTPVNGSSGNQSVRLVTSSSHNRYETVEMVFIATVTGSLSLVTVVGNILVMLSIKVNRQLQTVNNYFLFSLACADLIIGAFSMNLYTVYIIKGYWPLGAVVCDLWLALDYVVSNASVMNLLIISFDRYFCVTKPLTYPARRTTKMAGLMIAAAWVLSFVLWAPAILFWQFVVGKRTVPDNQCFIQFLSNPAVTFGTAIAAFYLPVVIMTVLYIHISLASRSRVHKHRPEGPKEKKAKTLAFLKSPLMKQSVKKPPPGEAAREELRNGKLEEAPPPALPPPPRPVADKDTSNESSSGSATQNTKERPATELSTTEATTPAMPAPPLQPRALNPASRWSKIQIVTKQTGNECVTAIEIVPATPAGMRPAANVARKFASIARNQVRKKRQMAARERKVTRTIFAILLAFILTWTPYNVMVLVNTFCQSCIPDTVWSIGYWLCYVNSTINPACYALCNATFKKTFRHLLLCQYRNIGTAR
Procedure: In a typical experiment the M4 muscarinic acetylcholine receptor modulating activity of the compounds of the present invention was determined in accordance with the following experimental method. CHO-K1 cells stably transfected with human M4 receptor and chimeric G-protein Gαqi5 (Coward P, et al., Analytical Biochemistry, 270:242-248 (1999)) are thawed from liquid N2 storage, resuspended in growth medium, plated in black, clear bottom 384 well plates, and incubated 16-20 hours at 37° C., 5% CO2. On the day of assay, growth medium is removed, the cells are washed 2 times with wash buffer, and cells are incubated in dye loading buffer at 37° C., 5% CO2 for ˜1 hour. […] Next, 10 uL of acetylcholine is added (final concentration calculated so as to achieve 20% of the maximum acetycholine response), and the fluorescence reading is continued for 3.5 min. In some cases, a third addition of acetylcholine (final concentration calculated to achieve 70% of the maximal acetylcholine response) is performed. The resulting dose response curves are fit to a 4 parameter logistic equation and the final result is determined as the inflection point (IP) of the curve
CHO-K1 cells stably transfected with human M4 receptor and chimeric G-protein Gαqi5 are thawed from liquid N2 storage, resuspended in growth medium, plated in black, clear bottom 384 well plates, and incubated 16-20 hours at 37° C., 5% CO2.
On the day of assay, growth medium is removed, the cells are washed 2 times with wash buffer, and cells are incubated in dye loading buffer at 37° C., 5% CO2 for ˜1 h. […] Next, 10 uL of acetylcholine is added (final concentration calculated so as to achieve 20% of the maximum acetycholine response), and the fluorescence reading is continued for 3.5 min. In some cases, a third addition of acetylcholine (final concentration calculated to achieve 70% of the maximal acetylcholine response) is performed.

Row | SMILES | EC50
1 | Cc1cc2c(nc1N1CCC(Oc3ccccc3)CC1)CNC2=O [Example 5, 3-methyl-2-(4-phenoxypiperidin-1-yl)-6,7-dihydro-5H-pyrrolo[3,4-b]pyridin-5-one] | 21 nM
2 | CCc1cc2c(nc1N1CC[C@@H](Oc3ccc4c(c3)COC4)[C@@H](F)C1)CNC2=O [Example 214, 2-((3S,4R)-4-((1,3-dihydro-2-benzofuran-5-yl)oxy)-3-fluoropiperidin-1-yl)-3-ethyl-6,7-dihydro-5H-pyrrolo[3,4-b]pyridin-5-one] | 93 nM
3 | Cc1c(N2CCC(OCC3(C)CC3)CC2)nc2c(c1C)C(=O)NC2 [Example 219, 3,4-dimethyl-2-(4-((1-methylcyclopropyl)methoxy)piperidin-1-yl)-6,7-dihydro-5H-pyrrolo[3,4-b]pyridin-5-one] | 25 nM
4 | COc1ncc(OC2CCN(c3nc4c(cc3C)C(=O)NC4)CC2)cc1C [Example 115, 2-(4-((6-methoxy-5-methylpyridin-3-yl)oxy)piperidin-1-yl)-3-methyl-6,7-dihydro-5H-pyrrolo[3,4-b]pyridin-5-one] | 119 nM
5 | Cc1cc2c(nc1N1CCC(Oc3ccc(C#N)cc3)CC1)CNC2=O [Example 84, 4-((1-(3-methyl-5-oxo-6,7-dihydro-5H-pyrrolo[3,4-b]pyridin-2-yl)piperidin-4-yl)oxy)benzonitrile] | 229 nM
6 | Cc1cc2c(nc1N1CCC(OCC3(C)CC3(F)F)CC1)CNC2=O (centres unmarked) [Example 64, 2-(4-((2,2-difluoro-1-methylcyclopropyl)methoxy)piperidin-1-yl)-3-methyl-6,7-dihydro-5H-pyrrolo[3,4-b]pyridin-5-one] | 206 nM
7 | CCc1cc2c(nc1N1CCC(Oc3ccc4c(cnn4C)c3)CC1)[C@H](CO)N(C)C2=O [Example 364, (R)-3-ethyl-7-(hydroxymethyl)-6-methyl-2-(4-((1-methyl-1H-indazol-5-yl)oxy)piperidin-1-yl)-6,7-dihydro-5H-pyrrolo[3,4-b]pyridin-5-one] | 3770 nM
8 | COC(=O)c1ccc(OC2CCN(c3nc4c(cc3C)C(=O)NC4)CC2)cn1 [Example 87, methyl 5-((1-(3-methyl-5-oxo-6,7-dihydro-5H-pyrrolo[3,4-b]pyridin-2-yl)piperidin-4-yl)oxy)picolinate] | 1000 nM
9 | COCc1ccc(OC2CCN(c3nc4c(cc3C)C(=O)NC4)CC2)cn1 [Example 203, 2-(4-((6-(methoxymethyl)pyridin-3-yl)oxy)piperidin-1-yl)-3-methyl-6,7-dihydro-5H-pyrrolo[3,4-b]pyridin-5-one] | 531 nM
10 | Cc1cc2c(nc1N1CCC(Oc3ccc4c(c3)OCC4)CC1)CNC2=O [Example 198, 2-(4-((2,3-dihydrobenzofuran-6-yl)oxy)piperidin-1-yl)-3-methyl-6,7-dihydro-5H-pyrrolo[3,4-b]pyridin-5-one] | 18 nM
11 | COC(=O)Cn1ncc2cc(OC3CCN(c4nc5c(cc4C)C(=O)NC5)CC3)ccc21 [Example 211, methyl 2-(5-((1-(3-methyl-5-oxo-6,7-dihydro-5H-pyrrolo[3,4-b]pyridin-2-yl)piperidin-4-yl)oxy)-1H-indazol-1-yl)acetate] | 216 nM
12 | C=C1NC(=O)c2cc(C)c(N3CCC(Oc4ccc(OC)nc4)CC3)nc21 [Example 289, 2-(4-((6-Methoxypyridin-3-yl)oxy)piperidin-1-yl)-3-methyl-7-methylene-6,7-dihydro-5H-pyrrolo[3,4-b]pyridin-5-one] | 156 nM
13 | COc1ccc(OC2CCN(c3nc4c(c(CO)c3C)C(=O)NC4)CC2)cn1 [Example 302, 4-(hydroxymethyl)-2-(4-((6-methoxypyridin-3-yl)oxy)piperidin-1-yl)-3-methyl-6,7-dihydro-5H-pyrrolo[3,4-b]pyridin-5-one] | 819 nM
14 | Cc1cc2c(nc1N1CCC(Oc3ccc(N4CCC4)nc3)CC1)CNC2=O [Example 105, 2-(4-((6-(azetidin-1-yl)pyridin-3-yl)oxy)piperidin-1-yl)-3-methyl-6,7-dihydro-5H-pyrrolo[3,4-b]pyridin-5-one] | 104 nM
15 | COC(=O)c1c(C)c(N2CCC(Oc3ccc(OC)nc3)CC2)nc2c1C(=O)NC2 [Example 190, methyl 2-(4-((6-methoxypyridin-3-yl)oxy)piperidin-1-yl)-3-methyl-5-oxo-6,7-dihydro-5H-pyrrolo[3,4-b]pyridine-4-carboxylate] | 5610 nM
16 | COc1ccc(OC2CCN(c3nc4c(cc3C)C(=O)N(C)[C@H]4C(C)(C)O)CC2)cn1 [Example 323A, (R)-7-(2-Hydroxypropan-2-yl)-2-(4-((6-methoxpyridin-3-yl)oxy)piperidin-1-yl)-3,6-dimethyl-6,7-dihydro-5H-pyrrolo[3,4-b]pyridin-5-one] | 261 nM
17 | Cc1cc2c(nc1N1CCC(Oc3cnc4[nH]nc(C)c4c3)CC1)CNC2=O [Example 197, 3-methyl-2-(4-((3-methyl-1H-pyrazolo[3,4-b]pyridin-5-yl)oxy)piperidin-1-yl)-6,7-dihydro-5H-pyrrolo[3,4-b]pyridin-5-one] | 6070 nM
18 | COc1ccc(OC2CCN(c3nc4c(cc3C)C(=O)NC4)CC2)cc1 [Example 47, 2-(4-(4-methoxyphenoxy)piperidin-1-yl)-3-methyl-6,7-dihydro-5H-pyrrolo[3,4-b]pyridin-5-one] | 41 nM
19 | Cc1cc2c(nc1N1CCC(Oc3ccc(O[C@@H](C)CO)nc3)CC1)CNC2=O [Example 143A, (S)-2-(4-((6-((1-hydroxypropan-2-yl)oxy)pyridin-3-yl)oxy)piperidin-1-yl)-3-methyl-6,7-dihydro-5H-pyrrolo[3,4-b]pyridin-5-one] | 101 nM
20 | CCOC1CCN(c2nc3c(cc2C)C(=O)NC3)CC1 [Example 55, 2-(4-ethoxypiperidin-1-yl)-3-methyl-6,7-dihydro-5H-pyrrolo[3,4-b]pyridin-5-one] | 1120 nM
21 | Cc1cc2c(nc1N1CCC(Oc3ccc4c(cnn4C)c3)CC1)CN(CO)C2=O [Example 272, 6-(Hydroxymethyl)-3-methyl-2-(4-((1-methyl-1H-indazol-5-yl)oxy)piperidin-1-yl)-6,7-dihydro-5H-pyrrolo[3,4-b]pyridin-5-one] | 395 nM
22 | Cc1c(N2CCC(Oc3ccc4c(c3)COC4)CC2)nc2c(c1C)C(=O)N(C)[C@@H]2CO (single isomer, unassigned) [Example 337A] | 20 nM
23 | COc1ccc(OC2CCN(c3nc4c(cc3C)C(=O)N(Cc3ccncc3)C4)CC2)cn1 [Example 259, 2-(4-((6-methoxypyridin-3-yl)oxy)piperidin-1-yl)-3-methyl-6-(pyridin-4-ylmethyl)-6,7-dihydro-5H-pyrrolo[3,4-b]pyridin-5-one] | 87 nM
24 | COCCN1Cc2nc(N3CCC(Oc4ccc(OC)nc4)CC3)c(C)cc2C1=O [Example 252, 6-(2-methoxyethyl)-2-(4-((6-methoxypyridin-3-yl)oxy)piperidin-1-yl)-3-methyl-6,7-dihydro-5H-pyrrolo[3,4-b]pyridin-5-one] | 94 nM
25 | Cc1cc2c(nc1N1CCC(Oc3ccc4c(c3)CO[C@H]4C)CC1)CNC2=O [Example 199B, (S)-3-methyl-2-(4-((1-methyl-1,3-dihydro-2-benzofuran-5-yl)oxy)piperidin-1-yl)-6,7-dihydro-5H-pyrrolo[3,4-b]pyridin-5-one] | 72 nM
26 | Cc1cc2c(nc1N1CC[C@@H](Oc3cccc4c3COC4)[C@@H](F)C1)CNC2=O [Example 39, 2-((3S,4R)-4-((1,3-dihydro-2-benzofuran-4-yl)oxy)-3-fluoropiperidin-1-yl)-3-methyl-6,7-dihydro-5H-pyrrolo[3,4-b]pyridin-5-one] | 1600 nM
